Consider 18 molecules from patent US20120053200A1, “BACE 2 INHIBITORS” (priority 2010, published 2012).

pIC50: −log10 of the molar value.

The target in this test is T1, BACE2 (Rattus norvegicus, UniProt Q6IE75).
T1 construct: endogenous cellular BACE2 in the Ins1e rat cell line; endogenous in cells; host or cells: INS-TMEM27 (INS1e-derived rat beta-cell line with doxycycline-inducible full-length hTMEM27)
T1 sequence (Q6IE75 63-514): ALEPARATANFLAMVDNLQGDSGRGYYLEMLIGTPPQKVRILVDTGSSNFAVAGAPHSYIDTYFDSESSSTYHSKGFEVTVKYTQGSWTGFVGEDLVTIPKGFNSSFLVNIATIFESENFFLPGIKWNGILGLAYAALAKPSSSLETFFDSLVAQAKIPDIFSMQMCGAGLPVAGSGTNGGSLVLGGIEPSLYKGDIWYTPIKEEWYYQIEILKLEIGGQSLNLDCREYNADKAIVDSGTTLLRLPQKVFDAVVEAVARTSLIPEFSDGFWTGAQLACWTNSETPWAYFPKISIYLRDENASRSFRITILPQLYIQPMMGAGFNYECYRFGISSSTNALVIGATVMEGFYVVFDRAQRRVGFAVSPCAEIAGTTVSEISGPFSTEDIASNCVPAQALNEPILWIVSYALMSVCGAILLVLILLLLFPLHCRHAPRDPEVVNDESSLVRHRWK
The test is described as follows: Assay for BACE inhibition by measuring cellular TMEM27 cleavage (INS-TMEM27 cells, ELISA of shed TMEM27). The test is classed as cell-based. The note with it: inhibition of human TMEM27 cleavage by endogenous cellular BACE2 in INS1e-derived INS-TMEM27 rat cell line; ELISA of shed TMEM27 in supernatant. From the text:
Assay for […] Inhibition by Measuring Cellular TMEM27 Cleavage
This assay uses the principle of inhibition of human TMEM27 cleavage by endogenous cellular BACE2 in the Ins1e rat cell line and shedding from the cell surface into the culture medium, followed by detection in an ELISA assay. Inhibition of BACE2 prevents the cleavage and shedding in a dose-dependent manner.
The stable cell line “INS-TMEM27” represents an INS1e-derived cell line with inducible expression (using the TetOn system) of full-length hTMEM27 in a doxycycline-dependent manner. The cells were cultured throughout the experiment in RPMI1640+Glutamax (Invitrogen) Penicillin/Streptomycin, 10% Fetal bovine serum, 100 mM pyruvate, […] beta-mercatptoethanol, 100 micrograms/ml G418 and 100 microgram/ml hygromycin and were grown in adherent culture at 37° C. in a standard CO2 cell culture incubator.
INS-TMEM27 cells were seeded in 96-well plates. After 2 days in culture, BACE2 inhibitor was added in a range of concentrations as required by the assay and after a further two hours, doxycycline was added to a final concentration of 500 ng/ml. The cells were incubated for a further 46 hours and the supernatant harvested for detection of shed TMEM27.
An ELISA assay (using a pair of mouse anti-human-TMEM27 antibodies, raised against the extracellular domain of TMEM27) was used for detection of TMEM27 in the culture medium. An IC50 for BACE2 inhibition was calculated using the ELISA readout for each inhibitor concentration with standard curve-fitting software.
The inhibitory activity, given as an IC50 value, of the compounds of Examples 1 to 32 and 34 to 74 were as follows.
For orientation: In an ELISA, binding on a coated surface is turned into a signal by an enzyme label.

On to `Cc1cc(C2CCCN2C(=O)c2cccc(C(=O)N[C@@H](Cc3ccccc3)[C@H](O)CNCc3cccc(OC(F)(F)F)c3)c2)on1` (stereo partly drawn) [Example 26, N-[(1S,2R)-1-Benzyl-2-hydroxy-3-(3-trifluoromethoxy-benzylamino)-propyl]-3-[2-(3-methyl-isoxazol-5-yl)-pyrrolidine-1-carbonyl]-benzamide], for which the pIC50 was 6.55.

Consider `Cc1cc(C(=O)N[C@@H](Cc2ccccc2)[C@H](O)CNCc2cccc(OC(F)(F)F)c2)cc(C(=O)N(C)Cc2nc(C)cs2)c1` [Example 47, N-[(1S,2R)-1-Benzyl-2-hydroxy-3-(3-trifluoromethoxy-benzylamino)-propyl]-5,N′-dimethyl-N′-(4-methyl-thiazol-2-ylmethyl)-isophthalamide], for which the negative logarithm of the IC50 (pIC50) is 6.93.

In turn, `O=C(N[C@@H](Cc1ccccc1)[C@H](O)CNCc1cccc(C(F)(F)F)c1)c1cccc(C(=O)N2CCC[C@H]2Cc2ccccc2)c1` [Example 65, N-[(1S,2R)-1-Benzyl-2-hydroxy-3-(3-trifluoromethyl-benzylamino)-propyl]-3-((S)-2-benzyl-pyrrolidine-1-carbonyl)-benzamide] showed a pIC50 of 7.29.

Consider `Cn1ccc(C2CCCN2C(=O)c2cccc(C(=O)N[C@@H](Cc3ccccc3)[C@H](O)CNCc3cccc(C(F)(F)F)c3)c2)n1` (stereo partly drawn) [Example 14, N-[(1S,2R)-1-Benzyl-2-hydroxy-3-(3-trifluoromethyl-benzylamino)-propyl]-3-[2-(1-methyl-1H-pyrazol-3-yl)-pyrrolidine-1-carbonyl]-benzamide], for which the negative logarithm of the IC50 (pIC50) was 7.20. The pIC50 values of the last two molecules are within 0.2 log units of each other.

Take `CN(c1cc(C(=O)N[C@@H](Cc2ccccc2)[C@H](O)CNCc2cccc(C(F)(F)F)c2)cc(C(=O)N2CCCC2c2cccs2)c1)S(C)(=O)=O` (stereo partly drawn) [Example 53, N-[(1S,2R)-1-Benzyl-2-hydroxy-3-(3-trifluoromethyl-benzylamino)-propyl]-3-(methanesulfonyl-methyl-amino)-5-(2-thiophen-2-yl-pyrrolidine-1-carbonyl)-benzamide]: the pIC50 was 7.54. Compared with the last molecule, the pIC50 is 0.34 log units higher.

Molecule `Cc1csc([C@H]2CCCN2C(=O)c2cc(C(=O)N[C@@H](Cc3ccccc3)[C@H](O)CNCc3cccc(C(F)(F)F)c3)cc(N(C)S(C)(=O)=O)c2)n1` [Example 48, N-[(1S,2R)-1-Benzyl-2-hydroxy-3-(3-trifluoromethyl-benzylamino)-propyl]-3-(methanesulfonyl-methyl-amino)-5-[(R)-2-(4-methyl-thiazol-2-yl)-pyrrolidine-1-carbonyl]-benzamide] gave a pIC50 of 7.09. Against the preceding molecule, the pIC50 is 0.45 log units lower.

With `O=C(N[C@@H](Cc1ccccc1)[C@H](O)CNCc1cccc(C(F)(F)F)c1)c1cccc(C(=O)N2CCCC2c2cccnc2)c1` (stereo partly drawn) [Example 13, N-[(1S,2R)-1-Benzyl-2-hydroxy-3-(3-trifluoromethyl-benzylamino)-propyl]-3-(2-pyridin-3-yl-pyrrolidine-1-carbonyl)-benzamide], the negative logarithm of the IC50 (pIC50) is 7.17.

`O=C(N[C@@H](Cc1ccccc1)[C@H](O)CNCc1cccc(OC(F)(F)F)c1)c1cccc(C(=O)N2CCCC2c2cccnc2)c1` (stereo partly drawn) [Example 25, N-[(1S,2R)-1-Benzyl-2-hydroxy-3-(3-trifluoromethoxy-benzylamino)-propyl]-3-(2-pyridin-3-yl-pyrrolidine-1-carbonyl)-benzamide] showed a pIC50 of 7.15.

In turn, `O=C(N[C@@H](Cc1ccccc1)[C@H](O)CNCc1cccc(OC(F)(F)F)c1)c1cccc(C(=O)N2CCC(c3ccccn3)C2)c1` (stereo partly drawn) [Example 9, N-[(1S,2R)-1-Benzyl-2-hydroxy-3-(3-trifluoromethoxy-benzylamino)-propyl]-3-(3-pyridin-2-yl-pyrrolidine-1-carbonyl)-benzamide] showed a pIC50 of 6.58. Against the preceding molecule, the pIC50 is 0.57 log units lower.

The molecule `O=C(N[C@@H](Cc1ccccc1)[C@H](O)CNCc1cccc(C(F)(F)F)c1)c1cccc(C(=O)N2CCCC2c2ccncc2)c1` (stereo partly drawn) [Example 5, N-[(1S,2R)-1-Benzyl-2-hydroxy-3-(3-trifluoromethyl-benzylamino)-propyl]-3-(2-pyridin-4-yl-pyrrolidine-1-carbonyl)-benzamide] gave a pIC50 of 6.85.

Molecule `CC(C)(C)C1CCCN1C(=O)c1cccc(C(=O)N[C@@H](Cc2ccccc2)[C@H](O)CNCc2cccc(C(F)(F)F)c2)c1` (stereo partly drawn) [Example 73, N-[(1S,2R)-1-Benzyl-2-hydroxy-3-(3-trifluoromethyl-benzylamino)-propyl]-3-(2-tert-butyl-pyrrolidine-1-carbonyl)-benzamide] had a pIC50 of 7.25.

`O=C(N[C@@H](Cc1ccccc1)[C@H](O)CNCc1cccc(C(F)(F)F)c1)c1cccc(C(=O)N2CCCC2c2cccs2)c1` (stereo partly drawn) [Example 19, N-[(1S,2R)-1-Benzyl-2-hydroxy-3-(3-trifluoromethyl-benzylamino)-propyl]-3-(2-thiophen-2-yl-pyrrolidine-1-carbonyl)-benzamide] showed a pIC50 of 8.10.

The molecule `CC(C)CC1CCCN1C(=O)c1cccc(C(=O)N[C@@H](Cc2ccccc2)[C@H](O)CNCc2cccc(C(F)(F)F)c2)c1` (stereo partly drawn) [Example 70, N-[(1S,2R)-1-Benzyl-2-hydroxy-3-(3-trifluoromethyl-benzylamino)-propyl]-3-(2-isobutyl-pyrrolidine-1-carbonyl)-benzamide] had a pIC50 of 6.83.

The molecule `CN(c1cc(C(=O)N[C@@H](Cc2ccccc2)[C@H](O)CNCc2cccc(OC(F)(F)F)c2)cc(C(=O)N2CCCC2c2ccccc2)c1)S(C)(=O)=O` (stereo partly drawn) [Example 42, N-[(1S,2R)-1-Benzyl-2-hydroxy-3-(3-trifluoromethoxy-benzylamino)-propyl]-3-(methanesulfonyl-methyl-amino)-5-(2-phenyl-pyrrolidine-1-carbonyl)-benzamide] had a negative-log IC50 (pIC50) of 7.21.

On to `Cc1cc(C2CCCN2C(=O)c2cccc(C(=O)N[C@@H](Cc3ccccc3)[C@H](O)CNCc3cccc(C(F)(F)F)c3)c2)on1` (stereo partly drawn) [Example 16, N-[(1S,2R)-1-Benzyl-2-hydroxy-3-(3-trifluoromethyl-benzylamino)-propyl]-3-[2-(3-methyl-isoxazol-5-yl)-pyrrolidine-1-carbonyl]-benzamide], for which the negative logarithm of the IC50 (pIC50) is 7.26.

As to `CCn1cc(CNC[C@@H](O)[C@H](Cc2ccccc2)NC(=O)c2cc(C)cc(C(=O)N(C)Cc3nc(C)cs3)c2)cn1` [Example 40, N-{(1S,2R)-1-Benzyl-3-[(1-ethyl-1H-pyrazol-4-ylmethyl)-amino]-2-hydroxy-propyl}-5,N′-dimethyl-N′-(4-methyl-thiazol-2-ylmethyl)-isophthalamide], the pIC50 was 6.98.

The molecule `Cc1csc([C@H]2CCCN2C(=O)c2cccc(C(=O)N[C@@H](Cc3ccccc3)[C@H](O)CNCc3cccc(C(F)(F)F)c3)c2)n1` [Example 11, N-[(1S,2R)-1-Benzyl-2-hydroxy-3-(3-trifluoromethyl-benzylamino)-propyl]-3-[(R)-2-(4-methyl-thiazol-2-yl)-pyrrolidine-1-carbonyl]-benzamide] showed a pIC50 of 8.05.

Turning to `CCn1cc(CNC[C@@H](O)[C@H](Cc2ccccc2)NC(=O)c2cc(C(=O)N3CCCC3c3ccccc3)cc(N(C)S(C)(=O)=O)c2)cn1` (stereo partly drawn) [Example 35, N-{(1S,2R)-1-Benzyl-3-[(1-ethyl-1H-pyrazol-4-ylmethyl)-amino]-2-hydroxy-propyl}-3-(methanesulfonyl-methyl-amino)-5-(2-phenyl-pyrrolidine-1-carbonyl)-benzamide], the negative logarithm of the IC50 (pIC50) is 9.70. This pIC50 is 1.65 log units higher than that of the molecule before.

In general, pIC50 refers to the negative decadic logarithm of the IC50, by convention in mol/L. Low readings indicate a high IC50, high ones a low IC50.
